# What was measured:
# [1] = when swallowed may include headache, GI upset, itchiness, irritability, rash, muscle pain; cited from earlier work
# [2] = test system: patients afflicted with oral allergy syndrome; assay: Cromolyn Sodium mouth rinse in patients afflicted with oral allergy syndrome; assay type: in vivo
# Description: Using the teachings of the co-pending patent application entitled “PREPARATIONS FOR TOPICAL PREVENTION AND/OR TREATMENT OF ORAL […] SYMPTOMS DUE TO ORAL CONTACT WITH FRUITS AND/OR VEGETABLES”, filed Dec. […] These patients experienced much relief of their oral allergy and throat allergy symptoms. […] Thus, it seems that sometimes mouth rinsing of Cromolyn Sodium fails to deliver sufficient Cromolyn Sodium to the mast cells of the lip.
smiles,measurement,setting,value
O=C(O)c1cc(=O)c2c(OCC(O)COc3cccc4oc(C(=O)O)cc(=O)c34)cccc2o1 [Cromolyn Sodium],side effects,[1],very uncommon
same,lip itchiness of internal and external lip surfaces after mouth rinse,[2],some individuals still experienced lip itchiness
same,relief of oral allergy and throat allergy symptoms,[2],much relief

# From patent US20130030009A1, “METHOD FOR THE TREATMENT AND/OR PREVENTION OF ORAL ALLERGIC SYMPTIONS OF THE LIPS DUE TO ORAL CONTACT WITH A FOOD ALLERGEN” (priority 2010, published 2013)
